Measured values: BindingDB's records for doi:10.1021/jm00163a035 (Sri International, 1990)
pIC50: −log10 of the molar value.

Target: T1, Dihydrofolate reductase (Homo sapiens, UniProt P00374)
T1 sequence (P00374 whole entry): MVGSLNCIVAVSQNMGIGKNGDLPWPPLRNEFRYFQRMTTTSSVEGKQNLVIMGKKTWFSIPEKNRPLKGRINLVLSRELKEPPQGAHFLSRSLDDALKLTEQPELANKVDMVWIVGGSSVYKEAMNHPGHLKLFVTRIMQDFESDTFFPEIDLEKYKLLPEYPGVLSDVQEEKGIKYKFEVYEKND
Test: ChEBML_54117
Description: Inhibitory activity towards dihydrofolate reductase derived from human manca leukemia cells

- pIC50: 7.15
SMILES: CCC(Cc1ccc(C(=O)NC(CCC(=O)O)C(=O)O)cc1)c1cnc2nc(N)nc(N)c2n1 (stereo unspecified)
